In PubChem BioAssay AID248 (DTP/NCI, 2004):
Where “and” joins values, the source holds several entries; their conditions need not be identical. Equal values may be shown once. Toxic doses and inconclusive results are not listed.

Tested on: L1210 leukemia ip in BDF1 mice, survival T/C
Assay: NCI In Vivo Anticancer Drug Screen. Data for tumor model L1210 Leukemia (intraperitoneal) in B6D2F1 (BDF1) mice
Details: higher = longer survival
How it was run: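 Transplantable tumor model; survival measured in treated vs vehicle control mice. Value = treated/control.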

In the case of Nc1nc(=O)n(C2OC(CO)C(O)C2O)cc1F (stereo not drawn), the T/C (endpoint: mean survival time, dose: 0.02 mg/kg/injection, schedule: Q#A X020 (ip), vehicle: saline) is reported as 104 % of control, the T/C (endpoint: mean survival time, dose: 0.04 mg/kg/injection, schedule: Q#A X020 (ip), vehicle: saline) is reported as 109 % of control and the T/C (endpoint: mean survival time, dose: 0.05 mg/kg/injection, schedule: Q01DX010 (ip), vehicle: saline) is reported as 98 % of control. The T/C (endpoint: mean survival time, dose: 0.09 mg/kg/injection, schedule: Q01DX010 (ip), vehicle: saline) was 102 % of control, the T/C (endpoint: mean survival time, dose: 0.09 mg/kg/injection, schedule: Q#A X020 (ip), vehicle: saline) was 118 % of control and the T/C (endpoint: mean survival time, dose: 0.16 mg/kg/injection, schedule: Q03DX003 (ip), vehicle: saline) was 108 % of control. The T/C (endpoint: mean survival time, dose: 0.19 mg/kg/injection, schedule: Q01DX010 (ip), vehicle: saline) was 118 % of control, the T/C (endpoint: mean survival time, dose: 0.31 mg/kg/injection, schedule: Q03DX003 (ip), vehicle: saline) was 108 % of control and the T/C (endpoint: mean survival time, dose: 0.37 mg/kg/injection, schedule: Q#A X020 (ip), vehicle: saline) was 169 % of control. The T/C (endpoint: mean survival time, dose: 0.38 mg/kg/injection, schedule: Q01DX010 (im), vehicle: saline) was 114 % of control, the T/C (endpoint: mean survival time, dose: 0.38 mg/kg/injection, schedule: Q01DX010 (ip), vehicle: saline) was 110 % of control and the T/C (endpoint: mean survival time, dose: 0.38 mg/kg/injection, schedule: Q01DX010 (sc), vehicle: saline) was 112 % of control. For the same compound, the T/C (endpoint: mean survival time, dose: 0.63 mg/kg/injection, schedule: Q03DX003 (ip), vehicle: saline) was 122 % of control, the T/C (endpoint: mean survival time, dose: 0.75 mg/kg/injection, schedule: Q01DX010 (im), vehicle: saline) was 120 % of control and the T/C (endpoint: mean survival time, dose: 0.75 mg/kg/injection, schedule: Q#A X020 (ip), vehicle: saline) was 211 % of control. For the same compound, the T/C (endpoint: mean survival time, dose: 1.25 mg/kg/injection, schedule: Q03DX003 (ip), vehicle: saline) was 122 % of control, the T/C (endpoint: mean survival time, dose: 1.5 mg/kg/injection, schedule: Q01DX010 (ip), vehicle: saline) was 177 % of control and the T/C (endpoint: mean survival time, dose: 1.5 mg/kg/injection, schedule: Q#A X020 (ip), vehicle: saline) was 217 % of control. The T/C (endpoint: mean survival time, dose: 1.56 mg/kg/injection, schedule: Q01DX010 (oral), vehicle: saline) was 106 % of control, the T/C (endpoint: mean survival time, dose: 2.5 mg/kg/injection, schedule: Q01DX001 (ip), vehicle: saline) was 120 % of control and the T/C (endpoint: mean survival time, dose: 2.5 mg/kg/injection, schedule: Q03DX004 (ip), vehicle: saline) was 157 % of control. The T/C (endpoint: mean survival time, dose: 2.5 mg/kg/injection, schedule: Q07DX002 (ip), vehicle: saline) was 111 % of control, the T/C (endpoint: mean survival time, dose: 3.0 mg/kg/injection, schedule: Q01DX006 (iv), vehicle: saline) was 124 % of control and the T/C (endpoint: mean survival time, dose: 3.0 mg/kg/injection, schedule: Q01DX010 (im), vehicle: saline) was 159 % of control and 166 % of control. For the same compound, the T/C (endpoint: mean survival time, dose: 3.0 mg/kg/injection, schedule: Q01DX010 (ip), vehicle: saline) was 166 % of control, the T/C (endpoint: mean survival time, dose: 3.0 mg/kg/injection, schedule: Q01DX010 (sc), vehicle: saline) was 152 % of control and 162 % of control and the T/C (endpoint: mean survival time, dose: 3.12 mg/kg/injection, schedule: Q01DX015 (ip), vehicle: saline) was 195 % of control. The T/C (endpoint: mean survival time, dose: 3.13 mg/kg/injection, schedule: Q01DX010 (oral), vehicle: saline) was 112 % of control, the T/C (endpoint: mean survival time, dose: 4.0 mg/kg/injection, schedule: Q01DX009 (ip), vehicle: saline) was 173 % of control and the T/C (endpoint: mean survival time, dose: 5.0 mg/kg/injection, schedule: Q01DX001 (ip), vehicle: saline) was 122 % of control. The T/C (endpoint: mean survival time, dose: 5.0 mg/kg/injection, schedule: Q03DX004 (ip), vehicle: saline) was 157 % of control, the T/C (endpoint: mean survival time, dose: 6.0 mg/kg/injection, schedule: Q01DX010 (im), vehicle: saline) was 176 % of control and the T/C (endpoint: mean survival time, dose: 6.0 mg/kg/injection, schedule: Q01DX010 (ip), vehicle: saline) was 183 % of control. The T/C (endpoint: mean survival time, dose: 6.0 mg/kg/injection, schedule: Q01DX010 (sc), vehicle: saline) was 178 % of control, the T/C (endpoint: mean survival time, dose: 6.25 mg/kg/injection, schedule: Q01DX010 (oral), vehicle: saline) was 118 % of control and the T/C (endpoint: mean survival time, dose: 8.0 mg/kg/injection, schedule: Q01DX009 (ip), vehicle: saline) was 216 % of control. The T/C (endpoint: mean survival time, dose: 10.0 mg/kg/injection, schedule: Q01DX001 (ip), vehicle: saline) was 124 % of control, the T/C (endpoint: mean survival time, dose: 10.0 mg/kg/injection, schedule: Q03DX004 (ip), vehicle: saline) was 160 % of control and the T/C (endpoint: mean survival time, dose: 10.0 mg/kg/injection, schedule: Q03DX Z (ip), vehicle: saline) was 166 % of control. For the same compound, the T/C (endpoint: mean survival time, dose: 12.0 mg/kg/injection, schedule: Q01DX006 (iv), vehicle: saline) was 157 % of control, the T/C (endpoint: mean survival time, dose: 12.0 mg/kg/injection, schedule: Q01DX010 (im), vehicle: saline) was 217 % of control and the T/C (endpoint: mean survival time, dose: 12.0 mg/kg/injection, schedule: Q01DX010 (ip), vehicle: saline) was 197 % of control. The T/C (endpoint: mean survival time, dose: 12.0 mg/kg/injection, schedule: Q01DX010 (sc), vehicle: saline) was 203 % of control, the T/C (endpoint: mean survival time, dose: 12.0 mg/kg/injection, schedule: Q#A X020 (ip), vehicle: saline) was 201 % of control and the T/C (endpoint: mean survival time, dose: 12.5 mg/kg/injection, schedule: Q01DX010 (oral), vehicle: saline) was 153 % of control. The T/C (endpoint: mean survival time, dose: 20.0 mg/kg/injection, schedule: Q01DX001 (ip), vehicle: saline) was 118 % of control, the T/C (endpoint: mean survival time, dose: 20.0 mg/kg/injection, schedule: Q03DX Z (ip), vehicle: saline) was 174 % of control and the T/C (endpoint: mean survival time, dose: 24.0 mg/kg/injection, schedule: Q01DX006 (iv), vehicle: saline) was 160 % of control and 191 % of control. For the same compound, the T/C (endpoint: mean survival time, dose: 24.0 mg/kg/injection, schedule: Q01DX010 (ip), vehicle: saline) was 191 % of control, the T/C (endpoint: mean survival time, dose: 24.0 mg/kg/injection, schedule: Q#A X020 (ip), vehicle: saline) was 120 % of control and the T/C (endpoint: mean survival time, dose: 25.0 mg/kg/injection, schedule: Q01DX005 (ip), vehicle: saline) was 150 % of control and 160 % of control. The T/C (endpoint: mean survival time, dose: 25.0 mg/kg/injection, schedule: Q01DX010 (oral), vehicle: saline) was 174 % of control, the T/C (endpoint: mean survival time, dose: 40.0 mg/kg/injection, schedule: Q01DX001 (ip), vehicle: saline) was 122 % of control and the T/C (endpoint: mean survival time, dose: 40.0 mg/kg/injection, schedule: Q01DX005 (ip), vehicle: saline) was 174 % of control. For the same compound, the T/C (endpoint: mean survival time, dose: 40.0 mg/kg/injection, schedule: Q03DX Z (ip), vehicle: saline) was 198 % of control, the T/C (endpoint: mean survival time, dose: 48.0 mg/kg/injection, schedule: Q01DX006 (iv), vehicle: saline) was 180 % of control and the T/C (endpoint: mean survival time, dose: 48.0 mg/kg/injection, schedule: Q01DX010 (ip), vehicle: saline) was 116 % of control. For the same compound, the T/C (endpoint: mean survival time, dose: 48.0 mg/kg/injection, schedule: Q#A X020 (ip), vehicle: saline) was 101 % of control, the T/C (endpoint: mean survival time, dose: 50.0 mg/kg/injection, schedule: Q01DX001 (ip), vehicle: saline) was 124 % of control and the T/C (endpoint: mean survival time, dose: 50.0 mg/kg/injection, schedule: Q01DX010 (oral), vehicle: saline) was 186 % of control. For the same compound, the T/C (endpoint: mean survival time, dose: 64.0 mg/kg/injection, schedule: Q01DX009 (oral), vehicle: saline) was 168 % of control, the T/C (endpoint: mean survival time, dose: 80.0 mg/kg/injection, schedule: Q01DX005 (ip), vehicle: saline) was 168 % of control and the T/C (endpoint: mean survival time, dose: 80.0 mg/kg/injection, schedule: Q03DX004 (ip), vehicle: saline) was 180 % of control. For the same compound, the T/C (endpoint: mean survival time, dose: 80.0 mg/kg/injection, schedule: Q03DX Z (ip), vehicle: saline) was 201 % of control, the T/C (endpoint: mean survival time, dose: 96.0 mg/kg/injection, schedule: Q01DX006 (iv), vehicle: saline) was 177 % of control and the T/C (endpoint: mean survival time, dose: 96.0 mg/kg/injection, schedule: Q01DX010 (ip), vehicle: saline) was 112 % of control. The T/C (endpoint: mean survival time, dose: 96.0 mg/kg/injection, schedule: Q#A X020 (ip), vehicle: saline) was 103 % of control, the T/C (endpoint: mean survival time, dose: 100.0 mg/kg/injection, schedule: Q01DX001 (ip), vehicle: saline) was 118 % of control and the T/C (endpoint: mean survival time, dose: 100.0 mg/kg/injection, schedule: Q01DX009 (ip), vehicle: saline) was 183 % of control. The T/C (endpoint: mean survival time, dose: 100.0 mg/kg/injection, schedule: Q01DX010 (oral), vehicle: saline) was 157 % of control, the T/C (endpoint: mean survival time, dose: 128.0 mg/kg/injection, schedule: Q01DX001 (oral), vehicle: saline) was 110 % of control and the T/C (endpoint: mean survival time, dose: 128.0 mg/kg/injection, schedule: Q01DX009 (oral), vehicle: saline) was 181 % of control. The T/C (endpoint: mean survival time, dose: 160.0 mg/kg/injection, schedule: Q01DX005 (ip), vehicle: saline) was 168 % of control, the T/C (endpoint: mean survival time, dose: 160.0 mg/kg/injection, schedule: Q03DX004 (ip), vehicle: saline) was 198 % of control and the T/C (endpoint: mean survival time, dose: 160.0 mg/kg/injection, schedule: Q07DX002 (ip), vehicle: saline) was 154 % of control. The T/C (endpoint: mean survival time, dose: 160.0 mg/kg/injection, schedule: Q07DX Z (ip), vehicle: saline) was 152 % of control, the T/C (endpoint: mean survival time, dose: 192.0 mg/kg/injection, schedule: Q01DX006 (iv), vehicle: saline) was 95 % of control and the T/C (endpoint: mean survival time, dose: 192.0 mg/kg/injection, schedule: Q01DX010 (im), vehicle: saline) was 110 % of control. For the same compound, the T/C (endpoint: mean survival time, dose: 192.0 mg/kg/injection, schedule: Q01DX010 (ip), vehicle: saline) was 108 % of control, the T/C (endpoint: mean survival time, dose: 192.0 mg/kg/injection, schedule: Q01DX010 (sc), vehicle: saline) was 119 % of control and the T/C (endpoint: mean survival time, dose: 200.0 mg/kg/injection, schedule: Q01DX001 (ip), vehicle: saline) was 119 % of control. For the same compound, the T/C (endpoint: mean survival time, dose: 200.0 mg/kg/injection, schedule: Q01DX009 (ip), vehicle: saline) was 93 % of control, the T/C (endpoint: mean survival time, dose: 256.0 mg/kg/injection, schedule: Q01DX001 (oral), vehicle: saline) was 117 % of control and the T/C (endpoint: mean survival time, dose: 320.0 mg/kg/injection, schedule: Q07DX002 (ip), vehicle: saline) was 182 % of control. For the same compound, the T/C (endpoint: median survival time, dose: 2.0 mg/kg/injection, schedule: Q01DX009 (ip), vehicle: saline with Tween-80) was 168 % of control, the T/C (endpoint: median survival time, dose: 4.0 mg/kg/injection, schedule: Q01DX009 (ip), vehicle: saline with Tween-80) was 175 % of control and the T/C (endpoint: median survival time, dose: 4.0 mg/kg/injection, schedule: Q01DX009 (ip), vehicle: saline) was 160 % of control and 175 % of control. For the same compound, the T/C (endpoint: median survival time, dose: 8.0 mg/kg/injection, schedule: Q01DX009 (ip), vehicle: saline with Tween-80) was 183 % of control, the T/C (endpoint: median survival time, dose: 8.0 mg/kg/injection, schedule: Q01DX009 (ip), vehicle: saline) was 170 % of control and 187 % of control and the T/C (endpoint: median survival time, dose: 16.0 mg/kg/injection, schedule: Q01DX009 (ip), vehicle: saline with Tween-80) was 186 % of control. For the same compound, the T/C (endpoint: median survival time, dose: 16.0 mg/kg/injection, schedule: Q01DX009 (ip), vehicle: saline) was 190 % of control, the T/C (endpoint: median survival time, dose: 32.0 mg/kg/injection, schedule: Q01DX009 (ip), vehicle: saline with Tween-80) was 202 % of control and the T/C (endpoint: median survival time, dose: 32.0 mg/kg/injection, schedule: Q01DX009 (ip), vehicle: saline) was 160 % of control.
